From patent publication US20110281807A1, “PLANT DISEASE CONTROL AGENT COMPRISING D-TAGATOSE AS ACTIVE INGREDIENT, AND PLANT DISEASE CONTROL METHOD” (NATIONAL UNIVERSITY CORPORATION KAGAWA UNIVERSITY, priority 2008, published 2011)
Several values for one entry are separate records, joined by “and”; a condition that tells them apart may be missing. Equal entries are not always repeated. Where two headings read alike, the source gives them in different places.

Columns and labels:
[1] = test system: Pseudoperonospora cubensis; experiment: cucumber downy mildew, pot test: curative effect
Protocol: Test plants (cucumber, variety: Sagami hanpaku) were seeded and grown until the one true leaf stage. And then a sporangium suspension of Pseudoperonospora cubensis containing 1×10^3/ml were sprayed on the back side of the leaves of test plants for inoculation and then the plants were put for 16 hours in an inoculation chamber (20° C. to 23° C.) to promote disease. For a curative test, the inoculated plants as described above were used.
D-Tagatose was diluted to 5%, 1% and 0.5% with distilled water and then 10 ml of the dilution was sprayed on the test plant. Seven days after the spraying of D-tagatose the disease severity of the test plants was observed and the effectiveness of test sample was judged. Tests were carried out using two plants for each test set and the disease severity of the test plants was judged. The control value was calculated from the degree of disease severity as in Example 1.

[2] = test system: Pseudoperonospora cubensis; experiment: cucumber downy mildew, pot test: preventive effect; conditions: for Preventive value (3 DAS): inoculated 3 days after spraying; for Preventive value (5 DAS): inoculated 5 days after spraying
Protocol: Test plants (cucumber, variety: Sagami hanpaku) were seeded and grown until the one true leaf stage. D-Tagatose was diluted to 5%, 1% and 0.5% with distilled water and then 10 ml of the dilution was sprayed on the test plant. Three or five days after spraying, a sporangium suspension of Pseudoperonospora cubensis containing 1×10^3/ml were inoculated by spraying on test plants and then the plants were put for 16 hours in an incubation chamber (20° C. to 23° C.) to promote disease. Seven days after inoculation the disease severity of the test plants was observed and the effectiveness of test sample was judged. Tests were carried out using two plants for each test set and the disease severity of the test plants was judged in accordance with the following criteria. The preventive value was calculated from the degree of the disease severity.
(§1) 0 (No lesion) 1 (Lesion area was not more than 40%) 2 ((Lesion area was 40%-80%) 3 (Lesion area was not less than 80%)
Preventive value=100{1−(n/N)} N=disease severity of untreated leaf, n=disease severity of the tested leaf

[3] = test system: Pseudoperonospora cubensis; conditions: alone
Protocol: Test plants (cucumber, variety: Sagami hanpaku) were seeded and grown until the one true leaf stage. D-tagatose alone was diluted to 5%, 1%, 0.5% and 0.1%, and the combination of D-tagatose and other saccharide were diluted to be 0.5% and 0.5% solution respectively with distilled water, and then 10 ml of the dilution was sprayed on the test plant. Three days after spraying of the solution, a sporangium suspension of Pseudoperonospora cubensis containing 1×10^3/ml were inoculated by spraying on test plants and then put them for 16 hours in an inoculation chamber (20° C. to 23° C.) to promote disease. Seven days after inoculation the disease severity of the test plants was observed and the effectiveness of test sample was judged. Tests were carried out using two plants for each test set and the disease severity of the test plants was judged in accordance with the following criteria. The preventive value was calculated from the degree of disease severity as in example 1.
Synergistic effect was determined by the Colby's equation below.
X is the observed effect, in percentage, of the first active ingredient and, and Y is the observed effect, in percentage, of the second active ingredient. E is the effect, in percentage, of the mixture expected from additive contribution of the individual components.

[4] = test system: Phytophthora infestans; assay type: in vivo; conditions: inoculated 3 days after spraying
[5] = test system: Pythium aphanidermatum; conditions: 10 ml soil drench, from germination rate after 2 weeks
Protocol: Five seeds of test plants (cucumber, variety: Sagami hanpaku) were sowed in a pot (5×5 cm), which contains infested soil with Pythium aphanidermatum (mycelium 100 g/1 L soil) and the seeds were covered with the soil. […] After 2 weeks, the disease severity of the test plants was observed and the effectiveness of test sample was judged. Tests were carried out in triplicate using 5 plants for each test set and the preventive value was calculated from the germination rate.

[6] = test system: Pythium glaminicola; conditions: 10 ml soil drench, from percentage of onset area after 2 weeks
Protocol: Four germinated rice seeds (variety: Koshihikari) were sowed in a pot (5×5 cm), which contains infected soil with Pythium glaminicola (mycelium 100 g/1 L soil). The pot was drenched with 10 ml of D-tagatose dilution and the seeds were covered with soil. After 2 weeks, the disease severity of the test plants per rice seedling in 25 cm^2 was observed and the effectiveness of test sample was judged. Tests were carried out in duplicate and the preventive value was calculated from percentage of onset area.

[7] = test system: Pseudoperonospora cubensis; conditions: 5 ml soil drench, inoculated 5 days after drenching
Protocol: Test plants (cucumber, variety: Sagami hanpaku) were seeded and grown until the one true leaf stage. D-Tagatose was diluted to 5% and 1% with distilled water and then 5 ml of the dilution was drenched into the soil of the pot. Five days after drenching, a sporangium suspension of Pseudoperonospora cubensis containing 1×10^3/ml were noculated by spraying on the test plants and then put them for 16 hours in an inoculation chamber (20° C. to 23° C.) to promote disease. Seven days after inoculation the disease severity of the test plants was observed and the effectiveness of test sample was judged. Tests were carried out using two plants for each test set and the disease severity of the test plants was judged. The preventive value was calculated from the degree of disease severity as in Example 1.

[8] = test system: Peronospora parasitica; experiment: cabbage downy mildew, pot test: preventive effect; conditions: inoculated 3 days after spraying
Protocol: Test plants (cabbage, variety: Shikidori) were seeded and grown until 4 leaves stage. […] Three days after spraying, a suspension containing condia of cucumber downy mildew (Peronospora parasitica) was inoculated by spraying on test plants. Seven days after inoculation the disease severity of the test plants was observed and the effectiveness of test sample was judged. Tests were carried out using two plants for each test set and the disease severity of test plants was judged in accordance with the following criteria. The preventive value was calculated from the degree of disease severity as in Example 1.

[9] = test system: Sphaerotheca fuligine; experiment: cucumber powdery mildew, pot test: preventive effect; conditions: inoculated 3 days after spraying
Protocol: Test plants (cucumber, variety: Sagami-hanpaku) were seeded and grown until the one true leaf stage. D-tagatose was diluted to 5% and 1% with distilled water and then 10 ml of the dilution was sprayed on the test plant. Three days after spraying, a condia suspension of Sphaerotheca fuligine was inoculated by spraying on test plants. Seven days after inoculation the disease severity of the test plants was observed and the effectiveness of test sample was judged. Tests were carried out using two plants for each test set and the disease severity of the test plants was judged in accordance with the following criteria.

[10] = test system: Phytophthora infestans; experiment: whole plant or invertebrate; assay type: in vivo; conditions: Phytophthora infestans, in Solanum lycopersicum, 168 h, read-out: Preventive value
[11] = test system: Pythium aphanidermatum; experiment: cucumber damping-off, pot test: soil drench of D-tagatose combined with fungicides; conditions: Pythium aphanidermatum, in Cucumis sativus, soil, 336 h, read-out: Preventive value
Protocol: Five seeds of test plants (cucumber, variety: Sagami hanpaku) were sowed in a pot (5×5 cm), which contains infested soil with Pythium aphanidermatum (mycelium 100 g/1 L soil) and was covered with soil. D-Tagatose was diluted to 5000 ppm and the fungicides were diluted to the concentrations listed in table 18, with distilled water. The pot was drenched with 10 ml of the dilution. After 2 weeks, the disease severity of the test plants was observed and the effectiveness of test sample was judged. Tests were carried out in triplicate using 5 plants for each test set and the preventive value was calculated from the germination rate.

[12] = test system: Puccinia recondita; conditions: Puccinia recondita, in Triticum aestivum, 168 h, read-out: Preventive value
Protocol: Test plants (variety: Nourin 61 gou) were sowed and grown until two leaves stage.
D-Tagatose and fungicide were diluted to 10000 ppm and the concentration listed in table 19, respectively, with distilled water, and 10 ml of the dilution was sprayed thoroughly on the plants. Three days after the spraying of the dilution, the plants were inoculated with Puccinia recondita containing 1×10^3/ml and then put for 16 hours in an inoculation chamber (20° C. to 23° C.) to promote disease. Seven days after inoculation the disease severity of the test plants was observed and the effectiveness of test sample was judged.

[13] = test system: Botrytis cinerea; conditions: Botrytis cinerea, in Solanum lycopersicum, 168 h, read-out: Preventive value
Protocol: Test plants (tomato, variety: Ogata-fukujyu) were seeded and grown until the three leaf stage. D-Tagatose and fungicide were diluted to 10000 ppm and the concentrations liste in table 23, respectively, with distilled water and 10 ml of the dilution was sprayed on the plants. Three days after spraying the solution, condia suspension of Botrytis cinerea were inoculated by spraying on test plants and then put for 16 hours in an inoculation chamber (20° C. to 23° C.) to promote disease. Seven days after inoculation, the disease severity of the test plants was observed and the effectiveness of test sample was judged.

[14] = test system: Plasmopara viticola; conditions: Plasmopara viticola, 168 h, read-out: Preventive value
Protocol: Test plants (variety: Neo Muscat) were seeded and grown until three leaves. D-Tagatose was diluted to 5000 ppm and the fungicides were diluted to the concentrations listed in table 16, with distilled water, and 10 ml of the dilution was sprayed on the plants. Three days after the spraying of the dilution, the plants were infected by spraying a sporangium suspension of Plasmopara viticola containing 1×10^3/ml and then put for 16 hours in an inoculation chamber (20° C. to 23° C.) to promote disease. The disease severity of the test plants was observed 7 days after inoculation, and the effectiveness of test sample was judged.

[15] = test system: Pseudoperonospora cubensis; conditions: Pseudoperonospora cubensis, in Cucumis sativus, 168 h, read-out: Preventive value
Protocol: Test plants (cucumber, variety: Sagami hanpaku) were seeded and grown until the one true leaf stage. And then, a sporangium suspension of Pseudoperonospora cubensis containing 1×10^3/ml were spraying for inoculation on the back side of the leaves of test plants and then put for 16 hours in an inoculation chamber (20° C. to 23° C.) to promote disease. For a curative test, the inoculated plants as described above were used.
D-Tagatose was diluted to 5000 ppm and the fungicides were diluted to the concentrations listed in table 15, with distilled water, and 10 ml of the dilution was sprayed. Seven days after inoculation the disease severity of the test plants was observed and the effectiveness of test sample was judged.

[16] = test system: Pseudoperonospora cubensis; conditions: Pseudoperonospora cubensis, in Cucumis sativus, 168 h, read-out: Preventive value; remark: listed apart in the source
Protocol: Test plants (cucumber, variety: Sagami hanpaku) were seeded and grown until the one true leaf stage. D-Tagatose was diluted to 5000 ppm and the fungicides were diluted to the concentrations listed in table 14, with distilled water. And then 10 ml of the dilution was sprayed on the test plant. Three days after spraying of the solution, a sporangium suspension of Pseudoperonospora cubensis containing 1×10^3/ml were inoculated by spraying on test plants and then put for 16 hours in an inoculation chamber (20° C. to 23° C.) to promote disease. Seven days after inoculation the disease severity of the test plants was observed and the effectiveness of the test sample was judged. Tests were carried out using two plants for each test set and the disease severity of the test plants was judged in accordance with the following criteria. The preventive value was calculated from the degree of disease severity.
as §1
Preventive value=100{1−(n/N)} N=disease severity of untreated leaf, n=disease severity of the test leaf Synergistic effect was determined by Colby's equation.

[17] = test system: Erysiphe graminis f.sp. hordei; conditions: Blumeria graminis, in Hordeum vulgare, 168 h, read-out: Preventive value
Protocol: Test plants (barley, variety: Akashinriki) were seeded and grown until the one leaf stage. D-tagatose and fungicide were diluted to 5000 ppm and the concentrations listed in table 21, respectively, with distilled water and 10 ml of the dilution was sprayed thoroughly on the plants. Three days after spraying, a condia suspension of Erysiphe graminis f.sp. hordei was inoculated by spraying on test plants. 7 days after inoculation the disease severity of the test plants was observed and the effectiveness of test sample was judged.

[18] = test system: Sphaerotheca fuliginea; conditions: Podosphaera fuliginea, in Cucumis sativus, 168 h, read-out: Preventive value
Protocol: Test plants (cucumber, variety: Sagami hanpaku) were seeded and grown until the one true leaf stage. D-Tagatose and fungicide were diluted to 5000 ppm and the concentrations listed in table 20, respectively, with distilled water and 10 ml of the dilution was sprayed thoroughly on the plants. Three days after spraying, a condia suspension containing of Sphaerotheca fuliginea were inoculated by spraying on test plants.
Seven days after inoculation the disease severity of the test plants was observed and the effectiveness of test sample was judged.

[19] = test system: Puccinia recondita; experiment: wheat brown rust, field trial; conditions: 200 ppm
Protocol: Test plants (variety: Nourin 61 gou) were sowed and grown until heading stage. D-Tagatose was diluted to 5% with distilled water and sprayed thoroughly on the plants two times every 8 days. Three days after the first spraying of the dilution, wheat leaves inoculated with wheat fusarium blight (Puccinia recondita) were kept in the test plants. The disease severity of the test plants was observed 21 days after last spraying and the effectiveness of test sample was judged. Tests were carried out in duplicate. One plot of each test was 5 m^2. The disease severity of the test plants was judged in accordance with the following criteria. The preventive value was calculated from the degree of disease severity.

[20] = test system: Pyricularia oryze; experiment: whole plant or invertebrate; assay type: in vivo; conditions: Pyricularia, in Oryza sativa, 168 h, read-out: Preventive value

For `CSC(=O)c1cccc2nnsc12` [Acibenzolar-S-Methyl, acibenzolar-S-methyl], the “Preventive value (control value)” value ([1]; 50 ppm sprayed after inoculation (curative)) was 25.0, the “Preventive value (3 DAS)” value ([2]; 50 ppm spray) was 91.7 and the “Preventive value (5 DAS)” value ([2]; 50 ppm spray) was 99.2. For the same compound, the Preventive value ([3]; 50 ppm) was 95.0.

`O=C(CO)[C@@H](O)[C@H](O)[C@H](O)CO` [D-Fuctose, D-fructose] gave a Preventive value ([3]; 5000 ppm) of 0.0.

`O=C[C@H](O)[C@@H](O)[C@H](O)[C@H](O)CO` [D-Glucose] was tested, and the Preventive value ([4]; 50000 ppm spray) was 0.0, the Preventive value ([4]; 100000 ppm spray) was 0.0 and the “Preventive value (control value)” value ([1]; 5000 ppm sprayed after inoculation (curative)) was 0.0. The “Preventive value (control value)” value ([1]; 10000 ppm sprayed after inoculation (curative)) was 0.0, the “Preventive value (control value)” value ([1]; 50000 ppm sprayed after inoculation (curative)) was 0.0 and the Preventive value ([5]; 10000 ppm) was 0.0. For the same compound, the Preventive value ([5]; 50000 ppm) was 0.0, the Preventive value ([6]; 10000 ppm) was 3.0 and the Preventive value ([6]; 50000 ppm) was 4.5. It also gave a Preventive value ([7]; 10000 ppm) of 0.0, a Preventive value ([7]; 50000 ppm) of 0.0 and a Preventive value ([8]; 10000 ppm spray) of 0.0. For the same compound, the Preventive value ([8]; 50000 ppm spray) was 0.0, the “Preventive value (3 DAS)” value ([2]; 5000 ppm spray) was 0.0 and the “Preventive value (5 DAS)” value ([2]; 5000 ppm spray) was 0.0. For the same compound, the “Preventive value (3 DAS)” value ([2]; 10000 ppm spray) was 0.0, the “Preventive value (5 DAS)” value ([2]; 10000 ppm spray) was 0.0 and the “Preventive value (3 DAS)” value ([2]; 50000 ppm spray) was 0.0. For the same compound, the “Preventive value (5 DAS)” value ([2]; 50000 ppm spray) was 0.0, the Preventive value ([9]; 10000 ppm spray) was 0.0 and the Preventive value ([9]; 50000 ppm spray) was 0.0.

For `O=C[C@@H](O)[C@@H](O)[C@H](O)[C@H](O)CO` [D-Mannose, D-mannose], the Preventive value ([3]; 5000 ppm) was 0.0.

In the case of `O=C(CO)[C@H](O)[C@H](O)[C@H](O)CO` [D-Psicose, D-psicose], the Preventive value ([3]; 5000 ppm) is reported as 0.0.

In the case of `O=C(CO)[C@H](O)[C@@H](O)[C@H](O)CO` [D-Sorbose, D-sorbose], the Preventive value ([3]; 5000 ppm) is reported as 0.0.

`COCC(=O)N(c1c(C)cccc1C)C(C)C(=O)OC` (centres unmarked) [Metalaxyl, metalaxyl] was tested, and the Preventive value ([4]; 300 ppm spray) was 93.3, the pest or weed control at 2 ppm [10] was 67% and the “Preventive value (control value)” value ([1]; 300 ppm sprayed after inoculation (curative)) was 100.0. The Preventive value ([5]; 300 ppm) was 95.0, the Preventive value ([7]; 300 ppm) was 100.0 and the Preventive value ([8]; 600 ppm spray) was 98.4. For the same compound, the “Preventive value (3 DAS)” value ([2]; 300 ppm spray) was 100.0, the “Preventive value (5 DAS)” value ([2]; 300 ppm spray) was 100.0 and the pest or weed control at 5 ppm [11] was 83%. For the same compound, the pest or weed control at 250 ppm [12] was 0%, the pest or weed control at 250 ppm [13] was 0% and the pest or weed control at 2 ppm [14] was 50%. The pest or weed control at 2 ppm [15] was 33%, the pest or weed control at 2 ppm [16] was 67% and the pest or weed control at 250 ppm [17] was 0%. The pest or weed control at 250 ppm [18] was 0% and the Preventive value ([3]; 300 ppm) was 100.0.

In the case of `C=CCOC1=NS(=O)(=O)c2ccccc21` [Probenazole, probenazole], the “Preventive value (control value)” value ([1]; 100 ppm sprayed after inoculation (curative)) is reported as 18.3, the “Preventive value (3 DAS)” value ([2]; 100 ppm spray) is reported as 33.3 and the “Preventive value (5 DAS)” value ([2]; 100 ppm spray) is reported as 95.0. The Preventive value ([3]; 100 ppm) was 66.7.

With `CC(C)(C)C(O)(CCc1ccc(Cl)cc1)Cn1cncn1` (centres unmarked) [Tebuconazole, tebuconazole] the “D.D.S (Degree of disease severity), Av” value ([19]; average of plots) was 0.2, the “Leaves number(n) of disease severity 0” value ([19]; per plot (1, 2), 100 leaves) was 98 and 100 and the “Leaves number(n) of disease severity 2” value ([19]; per plot (1, 2), 100 leaves) was 0. The “Leaves number(n) of disease severity 3” value ([19]; per plot (1, 2), 100 leaves) was 0, the “Leaves number(n) of disease severity 4” value ([19]; per plot (1, 2), 100 leaves) was 0 and the “Leaves number(n) of disease severity 5” value ([19]; per plot (1, 2), 100 leaves) was 0. The “Leaves number(n) of disease severity 6” value ([19]; per plot (1, 2), 100 leaves) was 0, the “P.V. (Preventive value), Av” value ([19]; sprayed two times every 8 days, rated 21 days after last spraying) was 99.8 and the pest or weed control at 0.4 ppm [12] was 50%. The pest or weed control at 10 ppm [13] was 33%, the pest or weed control at 0.4 ppm [17] was 67% and the pest or weed control at 0.4 ppm [18] was 73%.

For `CC(C)CC(C)c1sccc1NC(=O)c1cn(C)nc1C(F)(F)F` (centres unmarked) [penthiopyrad], the pest or weed control at 50 ppm [10] was 0%, the pest or weed control at 50 ppm [20] was 40% and the pest or weed control at 250 ppm [11] was 0%. For the same compound, the pest or weed control at 0.4 ppm [12] was 67%, the pest or weed control at 10 ppm [13] was 67% and the pest or weed control at 50 ppm [14] was 0%. For the same compound, the pest or weed control at 50 ppm [15] was 0%, the pest or weed control at 50 ppm [16] was 0% and the pest or weed control at 0.4 ppm [17] was 67%. The pest or weed control at 0.4 ppm [18] was 50%.

With `C[Si](C)(C)CC(O)(Cn1cncn1)c1ccc(F)cc1` (centres unmarked) [simeconazole] the pest or weed control at 250 ppm [10] was 0%, the pest or weed control at 250 ppm [20] was 73% and the pest or weed control at 250 ppm [11] was 0%. The pest or weed control at 10 ppm [12] was 67%, the pest or weed control at 50 ppm [13] was 33% and the pest or weed control at 250 ppm [14] was 0%. For the same compound, the pest or weed control at 250 ppm [15] was 0%, the pest or weed control at 250 ppm [16] was 0% and the pest or weed control at 0.4 ppm [17] was 50%. For the same compound, the pest or weed control at 0.4 ppm [18] was 83%.

`COC(=O)NC(=S)Nc1ccccc1NC(=S)NC(=O)OC` [thiophanate-methyl] gave a pest or weed control at 250 ppm [10] of 0%, a pest or weed control at 250 ppm [20] of 83% and a pest or weed control at 250 ppm [11] of 0%. For the same compound, the pest or weed control at 10 ppm [12] was 40%, the pest or weed control at 50 ppm [13] was 83% and the pest or weed control at 250 ppm [14] was 0%. It also gave a pest or weed control at 250 ppm [15] of 0%, a pest or weed control at 250 ppm [16] of 0% and a pest or weed control at 10 ppm [17] of 83%. For the same compound, the pest or weed control at 10 ppm [18] was 83%.
